Earlier results in publication PMC5611894 (Journal of Alzheimer's Disease, 2017).

How the values were obtained:
Aβ42 monomers = conditions: SPR equilibrium binding, Aβ42 monomers immobilized on chip
Aβ42 oligomers = conditions: SPR equilibrium binding, Aβ42 oligomers immobilized on chip

SMILES: CC[C@]12C=CCN3CC[C@]4(C(=C(C(=O)OC)C1)Nc1ccccc14)[C@@H]32 [tabersonine]
- Kd (Aβ42 monomers): 69 µM
- Kd (Aβ42 oligomers): 535 µM
